Columns and labels:
Type in all cases: cell-based, human
Jurkat T cells = test: Western blot of proteasome target proteins in Jurkat T cells; settings: for increase of IκB-α protein levels: at 6 hours
Procedure: (§1) Cell Culture, Cell Extract Preparation, and Western Blot Assay. Human leukemia Jurkat T and prostate cancer LNCaP cells were cultured in RPMI 1640 medium supplemented with 10% fetal calf serum, 100 units/ml of penicillin, and 100 μg/ml streptomycin. Human immortalized, non-transformed NK cells (YT cell line) (38) were cultured in RPMI 1640 supplemented with 1 mM MEM sodium pyruvate solution, 0.1 mM MEM non-essential amino acids solution, 10% fetal calf serum. 100 units/ml penicillin, and 100 μg/ml streptomycin. Normal (WI-38) and simian virus 40 (SV40)-transformed (VA-13) human fibroblasts were grown in Dulbecco's modified Eagle's medium supplemented with 10% fetal calf serum, 100 units/ml of penicillin and 100 μg/ml of streptomycin. All cells were maintained at 37° C. in a humidified incubator with an atmosphere of 5% CO2. A whole cell extract was prepared in accordance with An et al. (An, B. et al. Cell Death Differ, 1998, 5:1062-75). Briefly, cells were harvested, washed with PBS twice, and homogenized in a lysis buffer [50 mM Tris-HCl (pH 8.0), 5 mM EDTA, 150 mM NaCl, 0.5% NP-40, 0.5 mM phenylmethylsulfonyl fluoride, and 0.5 mM dithiothreitol] for 30 min at 4° C. Afterwards, lysates were centrifuged at 12,000×g for 15 min at 4° C., and the supernatants were collected as whole cell extracts. Equal amounts of protein extract (60 μg) were resolved by SDS-polyacrylamide gel electrophoresis and transferred to a nitrocellulose membrane using a Semi-Dry Transfer system (BIO-RAD, Hercules, Calif.). Jurkat T, LNCaP, or DU-145 cells were treated with various concentrations of synthetic or natural tea polyphenols for indicted hours. The enhanced chemiluminescence (ECL) Western blot analysis was then performed using specific antibodies to the proteins of interest (p^27kip, IκB-α, PARP, Bax or actin). The ratio of p27 or IκB-α to the corresponding actin was determined by scanning intensities of the protein bands.
Immortalized, non-transformed normal natural killer (NK) cells (YT line) (Drexler, H. G. et al. Leuk Res, 2000, 24:881-911) and human leukemic Jurkat T cells (as a control) were treated with either (−)-EGCG (as a comparison) or (−)-EGCG-amide for up to 12 hour. […] In contrast, IκB-α expression in non-transformed NK cells was unchanged during each treatment, although the basal level (and the mobility) of IκB-α protein was higher in NK cells (FIGS. 13A and 13B).
Having discovered that the synthetic GTP analogs are potent and specific inhibitors of the proteasomal chymotrypsin-like activity in vitro (FIGS. 16A, 17A, 17B, and 17C), it was then determined whether the synthetic compounds could also be effective in inhibiting intact tumor cell proteasome activity. Because inhibition of the proteasome activity in tumor cells would result in increased levels of proteasome target proteins, levels of p27 and IκB-α proteins were measured by Western blot assay in Jurkat T cells treated with each GTP. After a 12 hour treatment, (+)-EGCG at 10 μM accumulated p27 and IκB-α levels by 3.5- and 3.1-fold, respectively (FIG. 18A). In comparison, the natural (−)-EGCG accumulated p27 and IκB-α, to a slightly lesser extent, by 2.7- and 2.1-fold, respectively (FIG. 18A). In addition, synthetic (+)-GCG increased p27 and IκB-α levels by 3.7- and 3.3-fold, respectively, similar to the results from (−)-GCG treatment (FIG. 18A).

LNCaP cells = test: Western blot of proteasome target proteins in LNCaP cells; settings: for Bax protein levels / apoptosis-specific PARP cleavage / increase of IκB-α levels / increase of p27 levels: 10 μM; for Bax protein levels / apoptosis-specific PARP cleavage: 24 hours; for increase of IκB-α levels / increase of p27 levels: 12 hour treatment
Summary of the method: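 LNCaP cells exposed to 25 μM (−)- or (+)-EGCG-amide for up to 9 h, or synthetic analogs for indicated hours. Whole-cell extracts (60 μg protein) probed by ECL Western blot for p27, IκB-α, Bax and polyubiquitinated proteins; p27 or IκB-α quantified as ratio to actin band intensity.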

VA-13 cells = test: Western blot of p27 in SV40-transformed VA-13 fibroblasts; settings: 25 μM
Procedure: as §1
Normal WI-38 and SV40-transformed VA-13 cell lines were treated with 25 μM of (−)-EGCG, (−)-EGCG-amide, (+)-EGCG, (+)-EGCG-amide, or GTP-1 for either 12 hours or 36 hours.

With `O=C(O[C@@H]1Cc2c(O)cc(O)cc2O[C@@H]1c1cc(O)c(O)c(O)c1)c1cc(O)c(O)c(O)c1` [(−)-EGCG, (−)-epigallocatechin-3-gallate, reference compound] the “accumulation of IκB-α levels” value (Jurkat T cells; 10 μM, 12 hour treatment) was 2.1 fold, the “accumulation of p27 levels” value (Jurkat T cells; 10 μM, 12 hour treatment) was 2.7 fold and the “increase of IκB-α protein levels” value (Jurkat T cells; treatment up to 12 hour) was “up to 6 fold”. For the same molecule, the “increase of p27 levels” value (Jurkat T cells; treatment up to 12 hour) was 17 fold, the Bax protein levels (LNCaP cells) was “significantly increased Bax protein levels” and the “apoptosis-specific PARP cleavage” value (LNCaP cells) was “induced the apoptosis-specific PARP cleavage”. For the same molecule, the “levels of Bax protein” value (LNCaP cells; 50 μM, 3 to 12 hours) was “increased only at 12 hours”, the “levels of p27 protein” value (VA-13 cells; 12 hours) was “significantly increased levels of p27 protein” and the “levels of p27 protein” value (VA-13 cells; 36 hours) was “accumulated p27 levels”.
For `O=C(N[C@@H]1Cc2c(O)cc(O)cc2O[C@@H]1c1cc(O)c(O)c(O)c1)c1cc(O)c(O)c(O)c1` [(−)-EGCG-amide, (−)-[2R,3R]-N-[5,7-Dihydroxy-2-(3,4,5-trihydroxyphenyl)-chroman-3-yl]-3,4,5-trihydroxybenzamide], the “increase of IκB-α protein levels” value (Jurkat T cells; treatment up to 12 hour) was ≤ 8 fold, the “levels of p27, IκB-α and Bax” value (LNCaP cells; 25 μM, up to 9 hours) was “able to increase levels of p27, IκB-α and Bax by 3 hours” and the “levels of p27 protein” value (VA-13 cells; 12 hours) was “significantly increased levels of p27 protein”.
In the case of `O=C(OC1Cc2c(O)cc(O)cc2OC1c1cc(O)c(O)c(O)c1)c1cc(O)c(O)c(O)c1` (single isomer, unassigned; (+)) [(+)-GCG], the “accumulation of IκB-α levels” value (Jurkat T cells; 10 μM, 12 hour treatment) is reported as 3.3 fold, the “accumulation of p27 levels” value (Jurkat T cells; 10 μM, 12 hour treatment) is reported as 3.7 fold and the “increase of IκB-α levels” value (LNCaP cells) is reported as 3.7 fold. The “increase of p27 levels” value (LNCaP cells) was 5.8 fold.
With `O=C(OC1Cc2c(O)cc(O)cc2OC1c1cc(O)c(O)c(O)c1)c1cc(O)c(O)c(O)c1` (single isomer, unassigned; (+)) [(+)-EGCG] the “accumulation of IκB-α levels” value (Jurkat T cells; 10 μM, 12 hour treatment) was 3.1 fold, the “accumulation of p27 levels” value (Jurkat T cells; 10 μM, 12 hour treatment) was 3.5 fold and the “increase in IκB-α levels as compared to (−)-EGCG” value (Jurkat T cells; 10 μM, 12 hour treatment) was 47%. The “increase in p27 levels as compared to (−)-EGCG” value (Jurkat T cells; 10 μM, 12 hour treatment) was ~30%, the “increase of IκB-α levels” value (LNCaP cells) was 2.6 fold and the “increase of p27 levels” value (LNCaP cells) was 3.1 fold. For the same molecule, the Bax protein levels (LNCaP cells) was “significantly increased Bax protein levels”, the “apoptosis-specific PARP cleavage” value (LNCaP cells) was “induced the apoptosis-specific PARP cleavage” and the “levels of p27 protein” value (VA-13 cells; 12 hours) was “significantly increased levels of p27 protein”.

— patent US9399631B2, “Polyphenol proteasome inhibitors, synthesis, and methods of use” (UNIVERSITY OF SOUTH FLORIDA, priority 2003, dated 2016)
